Test results as given in US8394959B2, “Maleate salts of (E)-N-{4-[3-chloro-4-(2-pyridinylmethoxy)anilino]-3-cyano-7-ethoxy-6-quinolinyl)-4-(dimethylamino)-2-buteramide and crystalline forms thereof” (Wyeth LLC, priority 2007, dated 2013).
≈ marks a conversion by molar mass, not a printed value. Where two headings read alike, the source gives them in different places.

Legend:
[1] = Compound pharmacokinetics (systemic exposure) in rats; format: in vivo, rat; set-up: AUC/Dose: unit not given here; settings: for AUC(0-t): read-out: AUC0-24
[2] = system: emectic receptors in the stomach; assay: Emectic receptor interaction / diarrhea in mammals; format: in vivo; settings: in words
[3] = Solubility comparison of free base and maleate salt; settings: for pH of solution in 2% Tween 80 in water: solvent 2% Tween 80 in water; for pH of solution in Water: solvent water
[4] = Physicochemical properties of maleate salt pilot batches; settings: for Aqueous Solubility: footnote: s the free base
[5] = Salt form screen: physicochemical properties (solubility, pH, hygroscopicity); settings: for pH: Table 1, pH of the solution
[6] = Water solubility and BCS classification of the free base; format: physicochemical
Source text: Pat. […] The compound is classified, based on the Biopharmaceutical Classification System, as a BCS Class IV compound (low water solubility and low permeability). […] The water solubility increases with decreasing pH as the compound becomes ionized. This compound is […] rate limiting. There is a need for a form of this compound with improved physicochemical properties.

physchem = settings: aqueous with cosolvent or surfactant or cyclodextrin
[7] = Solid state stability in closed and open containers at 40° C. and 75% RH; format: physicochemical; settings: for time remained stable: closed and open containers at 40° C. and 75% RH
Source text: Both Form I and Form II remained stable for 6 months under these conditions. […] Samples in the closed containers remained dry. HPLC purity analysis indicated no significant increase in degradation products in both open and closed conditions for up to 6 months.

[8] = Dynamic vapor sorption (DVS) hygroscopicity; format: physicochemical; settings: DVS isotherm, FIG. 2
Source text: The relative stability and hygroscopicity of the two crystalline forms of the maleate salt was studied in detail by dynamic vapor sorption (DVS).

[9] = 20-25° C., relative humidity 50-60%, 24 hours, XRD
Experimental: FIG. 7 illustrates an XRD scan of crystalline (E)-N-{4-[3-chloro-4-(2-pyridinylmethoxy)anilino]-3-cyano-7-ethoxy-6-quinolinyl}-4-(dimethylamino)-2-butenamide maleate in Form II, before and after exposure to relative humidity of 50-60% at an ambient temperature of 20-25° C. for 24 hours.
FIG. 8 is an XRD scan of crystalline (E)-N-{4-[3-chloro-4-(2-pyridinylmethoxy)anilino]-3-cyano-7-ethoxy-6-quinolinyl}-4-(dimethylamino)-2-butenamide maleate in Form I before (lower scan), and after (upper scan) exposure to relative humidity of 50-60% at room temperature of 20-25° C. for 24 hours.

[10] = Stability of crystalline forms of the reslurry at room temperature for 14 days; format: physicochemical; settings: reslurry in Ethyl acetate
Source text: In one embodiment the re-slurry is allowed to stand for about 14 days.

[11] = plasma, oral, rat Female, 5 mg/kg, Day 28, mean (SE), N 3
[12] = plasma, oral, rat Male, 5 mg/kg, Day 28, mean (SE), N 3
[13] = plasma, rat Female, 15 mg/kg, Day 28, mean (SE), N 3
[14] = plasma, rat Male, 15 mg/kg, Day 28, mean (SE), N 3
[15] = pilot batch Run 1, batch size 0.5 g
[16] = pilot batch Run 2, batch size 6.6 g
[17] = pilot batch Run 3, batch size 4 g
[18] = plasma, oral, rat Male, 100 mg/kg, Day 10, mean (SE), N 3
[19] = plasma, rat Female, 30 mg/kg, Day 10, mean (SE), N 3
[20] = plasma, rat Male, 10 mg/kg, Day 10, mean (SE), N 3
[21] = plasma, rat Male, 30 mg/kg, Day 10, mean (SE), N 3
[22] = Closed Vial at 40° C./75% RH, 1 week in storage
[23] = Closed Vial at 40° C./75% RH, 2 weeks in storage
[24] = Closed Vial at 40° C./75% RH, 4 weeks in storage
[25] = Closed Vial at 40° C./75% RH, 12 weeks in storage
[26] = Closed Vial at 40° C./75% RH, 24 weeks in storage
[27] = Closed Vial at 40° C./75% RH, Initial
[28] = Open Vial at 40° C./75% RH, 1 week in storage
[29] = Open Vial at 40° C./75% RH, 2 weeks in storage
[30] = Open Vial at 40° C./75% RH, 4 weeks in storage
[31] = Open Vial at 40° C./75% RH, 12 weeks in storage
[32] = Open Vial at 40° C./75% RH, 24 weeks in storage
[33] = Open Vial at 40° C./75% RH, Initial

For `CCOc1cc2ncc(C#N)c(Nc3ccc(OCc4ccccn4)c(Cl)c3)c2cc1NC(=O)/C=C/CN(C)C.O=C(O)/C=C\C(=O)O` [Maleate salt], which Cmax [1, 11] is on record?
The Cmax was 1380 ng/mL.

What about the AUC(0-t) [1, 11] of the same compound?
The AUC(0-t) was 9530 ng·h/mL.

What about the AUC(0-t) ([1]; plasma, oral, rat Female, 45 mg/kg, Day 28, mean (SE), N 3) of the same compound?
The AUC(0-t) was 75600 ng·h/mL.

And the Cmax [1, 12]?
Its Cmax is 1200 ng/mL.

What about the AUC(0-t) [1, 12] of the same compound?
Its AUC(0-t) is 8220 ng·h/mL.

And the AUC(0-t) ([1]; plasma, oral, rat Male, 45 mg/kg, Day 28, mean (SE), N 3)?
The AUC(0-t) was 65100 ng·h/mL.

What about the Cmax [1, 13] of the same compound?
Its Cmax is 3560 ng/mL.

And the AUC(0-t) [1, 13]?
The AUC(0-t) was 34200 ng·h/mL.

What about the Cmax ([1]; plasma, rat Female, 45 mg/kg, Day 28, mean (SE), N 3) of the same compound?
The Cmax was 4560 ng/mL.

And the Cmax [1, 14]?
Its Cmax is 3420 ng/mL.

What about the AUC(0-t) [1, 14] of the same compound?
The AUC(0-t) was 30200 ng·h/mL.

What about the Cmax ([1]; plasma, rat Male, 45 mg/kg, Day 28, mean (SE), N 3) of the same compound?
The Cmax was 4620 ng/mL.

What about the AUC/Dose ([1]; rat Female, 5 mg/kg, Day 28, mean (SE), N 3) of the same compound?
The AUC/Dose was 1907 (169).

And the AUC/Dose ([1]; rat Female, 15 mg/kg, Day 28, mean (SE), N 3)?
The AUC/Dose was 2278 (177).

And the AUC/Dose ([1]; rat Female, 45 mg/kg, Day 28, mean (SE), N 3)?
The AUC/Dose was 1681 (141).

What about the AUC/Dose ([1]; rat Male, 5 mg/kg, Day 28, mean (SE), N 3) of the same compound?
The AUC/Dose was 1645 (126).

And the AUC/Dose ([1]; rat Male, 15 mg/kg, Day 28, mean (SE), N 3)?
Its AUC/Dose is 2014 (178).

What about the AUC/Dose ([1]; rat Male, 45 mg/kg, Day 28, mean (SE), N 3) of the same compound?
The AUC/Dose was 1446 (106).

What about the “increase in AUC as compared to the free base” value ([1]; rat, dose range of 5 to 45 mg/kg) of the same compound?
Its value is “two-fold”.

What about the “emectic receptor interaction / diarrhea” value [2] of the same compound?
Its value is “minimizes emectic receptor interactions in mammals”.

What about the solubility ([3]; 2% Tween 80 in water, aqueous with cosolvent or surfactant or cyclodextrin) of the same compound?
The solubility was 1120 µg/mL.

And the “pH of solution in 2% Tween 80 in water” value [3]?
The value was “(pH 5.06)”.

And the “pH of solution in Water” value [3]?
Its value is “(pH 5.00)”.

What about the solubility ([3]; water, pH 5, water) of the same compound?
The solubility was 430 µg/mL.

What about the “Solution pH” value [4, 15] of the same compound?
Its value is 5.11.

What about the “Aqueous Solubility” value [4, 15] of the same compound?
The value was 0.37 mg/g.

What about the “Solution pH” value [4, 16] of the same compound?
The value was 5.10.

What about the “Aqueous Solubility” value [4, 16] of the same compound?
The value was 0.50 mg/g.

What about the “Solution pH” value [4, 17] of the same compound?
Its value is 5.15.

What about the “Aqueous Solubility” value [4, 17] of the same compound?
The value was 0.44 mg/g.

What about the solubility [5] of the same compound?
Its solubility is 0.37 mg/g.

What about the pH ([5]; salt screen) of the same compound?
The pH was 5.11.

And the hygroscopicity ([5]; salt screen, in words)?
Its hygroscopicity is “less hygroscopic”.

With Tosylate as the compound, how does the pH ([5]; salt screen) read?
Its pH is 4.72.

And the solubility ([5]; salt screen, Table 1, water)?
The solubility was 6.89 mg/g.

Which “Biopharmaceutical Classification System class” value ([6]; low water solubility and low permeability) does the source give for `CCOc1cc2ncc(C#N)c(Nc3ccc(OCc4ccccn4)c(Cl)c3)c2cc1NC(=O)/C=C/CN(C)C` [free base] here?
The value was “BCS Class IV”.

And the solubility ([6]; water, at about pH 7)?
Its solubility is ~1 µg/mL (≈ 1.8 µM).

And the Cmax [1, 18]?
Its Cmax is 3820 ng/mL.

And the AUC(0-t) [1, 18]?
Its AUC(0-t) is 58300 ng·h/mL.

What about the Cmax [1, 19] of the same compound?
The Cmax was 2440 ng/mL.

And the AUC(0-t) [1, 19]?
Its AUC(0-t) is 25000 ng·h/mL.

What about the Cmax [1, 20] of the same compound?
Its Cmax is 814 ng/mL.

And the AUC(0-t) [1, 20]?
Its AUC(0-t) is 6780 ng·h/mL.

And the Cmax ([1]; plasma, rat Male, 20 mg/kg, Day 1, mean (SE), N 4)?
The Cmax was 1010 ng/mL.

And the AUC(0-inf) ([1]; plasma, rat Male, 20 mg/kg, Day 1, mean (SE), N 4, footnote a: AUC0-∞)?
The AUC(0-inf) was 8510 ng·h/mL.

And the Cmax [1, 21]?
The Cmax was 1650 ng/mL.

And the AUC(0-t) [1, 21]?
Its AUC(0-t) is 20400 ng·h/mL.

And the systemic availability ([1]; rat)?
Its systemic availability is 20%.

And the AUC/Dose ([1]; rat Female, 30 mg/kg, Day 10, mean (SE), N 3)?
The AUC/Dose was 832 (145).

And the AUC/Dose ([1]; rat Male, 10 mg/kg, Day 10, mean (SE), N 3)?
Its AUC/Dose is 678 (64).

What about the AUC/Dose ([1]; rat Male, 20 mg/kg, Day 1, mean (SE), N 4) of the same compound?
The AUC/Dose was 426 (81).

And the AUC/Dose ([1]; rat Male, 30 mg/kg, Day 10, mean (SE), N 3)?
The AUC/Dose was 680 (78).

What about the AUC/Dose ([1]; rat Male, 100 mg/kg, Day 10, mean (SE), N 3) of the same compound?
Its AUC/Dose is 583 (125).

And the “emectic receptor interaction / diarrhea” value [2]?
The value was “giving rise to diarrhea in mammals”.

What about the solubility (physchem) of the same compound?
The solubility was 50 µg/mL (≈ 89.8 µM).

What about the “pH of solution in 2% Tween 80 in water” value [3] of the same compound?
Its value is “(pH 6.4)”.

And the “pH of solution in Water” value [3]?
Its value is “(pH 8.2)”.

Which pH ([5]; salt screen) does the source give for Fumarate here?
The pH was 3.53.

Which time remained stable [7] does the source give for `CCOc1cc2ncc(C#N)c(Nc3ccc(OCc4ccccn4)c(Cl)c3)c2cc1NC(=O)/C=C/CN(C)C.O.O=C(O)/C=C\C(=O)O` [Form II] here?
The time remained stable was 6 months.

And the “relative humidity at which water is lost” value ([8]; especially at 10% RH and below)?
The value was ≤ 20 % RH.

What about the “form stability on exposure to ambient humidity” value [9] of the same compound?
The value was “relatively stable”.

Which results are given for `CCOc1cc2ncc(C#N)c(Nc3ccc(OCc4ccccn4)c(Cl)c3)c2cc1NC(=O)/C=C/CN(C)C.O=C(O)/C=C\C(=O)O` [Form I]?
Moisture [7, 22]: 0.39%; Potency (dry basis) [7, 22]: 100.46%; Potency as is [7, 22]: 100.07%; Total impurities [7, 22]: 0.57%; Moisture [7, 23]: 0.34%; Potency (dry basis) [7, 23]: 100.38%; Potency as is [7, 23]: 100.03%; Total impurities [7, 23]: 0.64%; Moisture [7, 24]: 0.22%; Potency (dry basis) [7, 24]: 97.09%; Potency as is [7, 24]: 96.87%; Total impurities [7, 24]: 0.61%; Moisture [7, 25]: 0.46%; Potency (dry basis) [7, 25]: 100.67%; Potency as is [7, 25]: 100.21%; Total impurities [7, 25]: 0.66%; Moisture [7, 26]: 0.16%; Potency (dry basis) [7, 26]: 99.12%; Potency as is [7, 26]: 98.96%; Total impurities [7, 26]: 0.68%; Moisture [7, 27]: 0.35%; Potency (dry basis) [7, 27]: 100.85%; Potency as is [7, 27]: 100.50%; Total impurities [7, 27]: 0.57%; Moisture [7, 28]: 2.82%; Potency (dry basis) [7, 28]: 102.01%; Potency as is [7, 28]: 99.13%; Total impurities [7, 28]: 0.55%; Moisture [7, 29]: 2.86%; Potency (dry basis) [7, 29]: 100.37%; Potency as is [7, 29]: 97.50%; Total impurities [7, 29]: 0.65%; Moisture [7, 30]: 2.74%; Potency (dry basis) [7, 30]: 97.96%; Potency as is [7, 30]: 95.27%; Total impurities [7, 30]: 0.58%; Moisture [7, 31]: 2.98%; Potency (dry basis) [7, 31]: 101.13%; Potency as is [7, 31]: 98.12%; Total impurities [7, 31]: 0.65%; Moisture [7, 32]: 2.79%; Potency (dry basis) [7, 32]: 100.01%; Potency as is [7, 32]: 97.22%; Total impurities [7, 32]: 0.69%; Moisture [7, 33]: 0.35%; Potency (dry basis) [7, 33]: 100.85%; Potency as is [7, 33]: 100.50%; Total impurities [7, 33]: 0.57%; time remained stable [7]: 6 months; water uptake in open containers ([7]; open containers at 40° C. and 75% RH): rapidly absorbed one mole of water to form the monohydrate form; Final Form, wet cake [10]: I + some II; relative humidity at which moisture is gained ([8]; especially at 60% RH and above): above 40 % relative humidity (RH)
